Structures can show the parent of a compound that is named as a salt. Where two headings read alike, the source gives them in different places.
Columns and labels:
[1] = target: T1, human 5-HT2C receptor (Homo sapiens, UniProt P28335); experiment: 5-HT2C receptor-stimulated calcium mobilization (FLIPR) in CHO cells; assay type: cell-based; details: for Emax: CHO, read-out: 5-HT2C Function Emax (%)
T1 sequence (P28335 33-458): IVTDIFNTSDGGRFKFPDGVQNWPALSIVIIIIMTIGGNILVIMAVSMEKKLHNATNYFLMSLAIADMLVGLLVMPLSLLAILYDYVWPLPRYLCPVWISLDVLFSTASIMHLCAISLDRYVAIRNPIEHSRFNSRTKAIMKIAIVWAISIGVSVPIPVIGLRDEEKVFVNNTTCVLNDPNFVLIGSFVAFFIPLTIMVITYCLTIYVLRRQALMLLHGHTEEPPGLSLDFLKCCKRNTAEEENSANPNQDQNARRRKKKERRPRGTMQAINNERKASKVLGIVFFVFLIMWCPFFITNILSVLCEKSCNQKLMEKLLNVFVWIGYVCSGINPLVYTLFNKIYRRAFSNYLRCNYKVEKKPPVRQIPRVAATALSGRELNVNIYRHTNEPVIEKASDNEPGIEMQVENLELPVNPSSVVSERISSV

[2] = target: T2, human 5-hydroxytryptamine-2C (h-5-HT2C) receptor (Homo sapiens, UniProt P28335); experiment: [125I]DOI binding to membranes of CHO cells expressing the h-5-HT2C receptor; details: 5-HT2c Affinity KI (nM), displacement of [125I]DOI, CHO cell membranes
T2 sequence (P28335 33-458): T1 sequence (P28335 33-458)

[3] = calcium mobilization, CHO cells stably expressing human 5-HT2C, read-out: 5-HT2C Function EC50

| Structure (SMILES) | melting point | also measured |
| --- | --- | --- |
| CN1CCc2ccc(Cl)c3c2N(CC1)C1CCCCC31 (centres unmarked) (as salt: fumarate) [Example 37, 8-Chloro-3-methyl-2,3,4,5,8b,9,10,11,12,12a-decahydro-1H-[1,4]diazocino[7,8,1-jk]carbazole] | 178 to 180 °C |  |
| CN1CCc2cccc3c2N(CC1)C1CCSCC31 (centres unmarked) (as salt: fumarate) [Example 44, 3-Methyl-2,3,4,5,9,10,11,12-octahydro-1H,9H-[1,4]diazocino[7,8,1-hi]thiopyrano[4,3-b]indole] | 187 to 189 °C |  |
| c1cc2c3c(c1)c1c(n3CCNCC2)CCCCC1 (as salt: fumarate) [Example 10, 2,3,4,5,10,11,12,13-Octahydro-1H,9H-cyclohepta[b]1,4]diazocino[7,8,1-hi]indole] | 216 to 218 °C |  |
| CN1CCc2cccc3c4c(n(c23)CC1)CCCCC4 (as salt: fumarate) [Example 9, 3-Methyl-2,3,4,5,10,11,12,13-octahydro-1H,9H-cyclohepta[b][1,4]diazocino[7,8,1-hi]indole] | 190 to 192 °C |  |
| Clc1ccc2c3c1c1c(n3CCNCC2)CCC1 (as salt: fumarate) [Example 38, 8-Chloro-2,3,4,5,10,11-hexahydro-1H,9H-cyclopenta[b][1,4]diazocino[7,8,1-hi]indole] | 226 to 228 °C |  |
| CN1CCc2ccc(F)c3c4c(n(c23)CC1)CCC4 (as salt: fumarate) [Example 24, 8-Fluoro-3-methyl-2,3,4,5,10,11-hexahydro-1H,9H-cyclopenta[b][1,4]diazocino[7,8,1-hi]indole] | 168 to 170 °C |  |
| Fc1ccc2c3c1C1CCCC1N3CCNCC2 (centres unmarked) (as salt: fumarate) [Example 30, 8-Fluoro-2,3,4,5,9,10,11,11a-octahydro-1H,8bH-cyclopenta[b][1,4]diazocino[7,8,1-hi]indole] | 169 to 170 °C |  |
| Fc1ccc2c3c1c1c(n3CCNCC2)CCCC1 (as salt: fumarate) [Example 29, 8-Fluoro-2,3,4,5,9,10,11,12-octahydro-1H-[1,4]diazocino[7,8,1-jk]carbazole] | 177 to 179 °C |  |
| Clc1ccc2c3c1[C@H]1CCCC[C@H]1N3CCNCC2 (single isomer, unassigned) (as salt: fumarate) [Example 42, (+)-(8bR*,12aR*)-8-Chloro-2,3,4,5,8b,9,10,11,12,12a-decahydro-1H-[1,4]diazocino[7,8,1-jk]carbazole] | 170 to 173 °C |  |
| Clc1ccc2c3c1C1CCCC1N3CCNCC2 (centres unmarked) (as salt: fumarate) [Example 40, 8-Chloro-2,3,4,5,9,10,11,11a-octahydro-1H,8bH-cyclopenta[b][1,4]diazocino[7,8,1-hi]indole] | 169 to 170 °C |  |
| c1cc2c3c(c1)c1c(n3CCNCC2)CCC1 (as salt: fumarate) [Example 2, 2,3,4,5,10,11-Hexahydro-1H,9H-cyclopenta[b][1,4]diazocino[7,8,1-hi]indole] | 180 to 183 °C |  |
| CN1CCc2ccc(Cl)c3c2N(CC1)C1CCCC31 (centres unmarked) (as salt: fumarate) [Example 36, 8-Chloro-3-methyl-2,3,4,5,9,10,11,11a-octahydro-1H,8bH-cyclopenta[b][1,4]diazocino[7,8,1-hi]indole] | 179 to 181 °C |  |
| Fc1ccc2c3c1c1c(n3CCNCC2)CCC1 (as salt: fumarate) [Example 28, 8-Fluoro-2,3,4,5,10,11-hexahydro-1H,9H-cyclopenta[b][1,4]diazocino[7,8,1-hi]indole] | 199 to 200 °C |  |
| Clc1ccc2c3c1[C@H]1CCCC[C@H]1N3CCNCC2 (single isomer, unassigned) (as salt: fumarate) [Example 43, (−)-(8bR*,12aR*)-8-Chloro-2,3,4,5,8b,9,10,11,12,12a-decahydro-1H-[1,4]diazocino[7,8,1-jk]carbazole] | 168 to 171 °C |  |
| CCN1CCc2c(Cl)ccc3c2N(CC1)C1CCCCC31 (centres unmarked) (as salt: fumarate) [Example 23, 6-Chloro-3-ethyl-2,3,4,5,8b,9,10,11,12,12a-decahydro-1H-[1,4]diazocino[7,8,1-jk]carbazole] | 184 to 187 °C |  |
| CN1CCc2cccc3c2N(CC1)C1CCCC31 (centres unmarked) (as salt: fumarate) [Example 3, 3-Methyl-2,3,4,5,9,10,11,11a-octahydro-1H,8bH-cyclopenta[b][1,4]diazocino[7,8,1-hi]indole] | 159 to 161 °C |  |
| CN1CCc2ccc(F)c3c2N(CC1)C1CCCCC31 (centres unmarked) (as salt: fumarate) [Example 27, 8-Fluoro-3-methyl-2,3,4,5,8b,9,10,11,12,12a-decahydro-1H-[1,4]diazocino[7,8,1-jk]carbazole] | 168 to 170 °C |  |

| Structure (SMILES) | melting point | also measured |
| --- | --- | --- |
| CN1CCc2ccc(F)c3c4c(n(c23)CC1)CCCC4 (as salt: fumarate) [Example 25, 8-Fluoro-3-methyl-2,3,4,5,9,10,11,12-octahydro-1H-[1,4]diazocino[7,8,1-jk]carbazole] | 206 to 208 °C |  |
| c1cc2c3c(c1)C1CCCC1N3CCNCC2 (centres unmarked) (as salt: hydrochloride) [Example 4, 2,3,4,5,9,10,11,11a-Octahydro-1H,8bH-cyclopenta[b][1,4]diazocino[7,8,1-hi]indole] | 137 to 140 °C |  |
| Clc1ccc2c3c1CCNCCN3C1CCCC21 (centres unmarked) (as salt: fumarate) [Example 20, 6-Chloro-2,3,4,5,9,10,11,11a-octahydro-1H,8bH-cyclopenta[b][1,4]diazocino[7,8,1-hi]indole] | 188 to 189 °C |  |
| CN1CCc2ccc(Cl)c3c4c(n(c23)CC1)CCC4 (as salt: fumarate) [Example 34, 8-Chloro-3-methyl-2,3,4,5,10,11-hexahydro-1H,9H-cyclopenta[b][1,4]diazocino[7,8,1-hi]indole] | 209 to 211 °C |  |
| Clc1ccc2c3c1C1CCCCC1N3CCNCC2 (centres unmarked) (as salt: fumarate) [Example 41, 8-Chloro-2,3,4,5,8b,9,10,11,12,12a-decahydro-1H-[1,4]diazocino[7,8,1-jk]carbazole] | 199 to 200 °C |  |
| Fc1ccc2c3c1[C@H]1CCCC[C@H]1N3CCNCC2 (single isomer, unassigned) (as salt: fumarate) [Example 32, (+)-(8bR*,12aR*)-8-Fluoro-2,3,4,5,8b,9,10,11,12,12a-decahydro-1H-[1,4]diazocino[7,8,1-jk]carbazole] | > 130 °C |  |
| c1cc2c3c(c1)C1CCCCC1N3CCNCC2 (centres unmarked) (as salt: fumarate) [Example 8, 2,3,4,5,8b,9,10,11,12,12a-Decahydro-1H-[1,4]diazocino[7,8,1-jk]carbazole] | 169 to 171 °C |  |
| Clc1ccc2c3c1CCNCCN3C1CCCCCC21 (centres unmarked) (as salt: fumarate) [Example 22, 6-Chloro-2,3,4,5,9,10,11,12,13,13a-decahydro-1H,8bH-cyclohepta[b][1,4]diazocino[7,8,1-hi]indole] | 168 to 170 °C |  |
| Clc1ccc2c3c(n4c2c1CCNCC4)CCCCC3 (as salt: fumarate) [Example 19, 6-Chloro-2,3,4,5,10,11,12,13-octahydro-1H,9H-cyclohepta[b][1,4]diazocino[7,8,1-hi]indole] | 208 to 210 °C |  |
| Clc1ccc2c3c1c1c(n3CCNCC2)CCC1 [Example 38, 8-Chloro-2,3,4,5,10,11-hexahydro-1H,9H-cyclopenta[b][1,4]diazocino[7,8,1-hi]indole] |  | EC50 [1]: 87 nM; Emax [1]: 90%; Ki [2]: 9.3 nM |
| Clc1ccc2c3c1c1c(n3CCNCC2)CCCC1 [Example 39, 8-Chloro-2,3,4,5,9,10,11,12-octahydro-1H-[1,4]diazocino[7,8,1-jk]carbazole] |  | EC50 [1]: 48 nM; Emax [1]: 80%; Ki [2]: 2 nM |
| CN1CCc2ccc(Cl)c3c2N(CC1)C1CCCCC31 (centres unmarked) [Example 37, 8-Chloro-3-methyl-2,3,4,5,8b,9,10,11,12,12a-decahydro-1H-[1,4]diazocino[7,8,1-jk]carbazole] |  | Emax [1]: 70%; EC50 [1, 3]: 655 nM; Ki [2]: 11.6 nM |
| Fc1ccc2c3c1C1CCCC1N3CCNCC2 (centres unmarked) [Example 30, 8-Fluoro-2,3,4,5,9,10,11,11a-octahydro-1H,8bH-cyclopenta[b][1,4]diazocino[7,8,1-hi]indole] |  | EC50 [1]: 36 nM; Emax [1]: 90%; Ki [2]: 16 nM |
| c1cc2c3c(c1)c1c(n3CCNCC2)CCCC1 [Example 6, 2,3,4,5,9,10,11,12-Octahydro-1H-[1,4]diazocino[7,8,1-jk]carbazole] |  | EC50 [1]: 6 nM; Emax [1]: 80%; Ki [2]: 4 nM |
| c1cc2c3c(c1)C1CCCC1N3CCNCC2 (centres unmarked) [Example 4, 2,3,4,5,9,10,11,11a-Octahydro-1H,8bH-cyclopenta[b][1,4]diazocino[7,8,1-hi]indole] |  | EC50 [1]: 18 nM; Emax [1]: 90%; Ki [2]: 31 nM |
| c1cc2c3c(c1)c1c(n3CCNCC2)CCCCC1 [Example 10, 2,3,4,5,10,11,12,13-Octahydro-1H,9H-cyclohepta[b]1,4]diazocino[7,8,1-hi]indole] |  | Emax [1]: 90%; EC50 [1, 3]: 156 nM; Ki [2]: 38 nM |
| c1cc2c3c(c1)c1c(n3CCNCC2)CCC1 [Example 2, 2,3,4,5,10,11-Hexahydro-1H,9H-cyclopenta[b][1,4]diazocino[7,8,1-hi]indole] |  | EC50 [1]: 20 nM; Emax [1]: 80%; Ki [2]: 38 nM |

Source: patent US7012089B2, “[1,4]Diazocino[7,8,1-hi]indole derivatives as antipsychotic and antiobesity agents” (Wyeth, priority 2002, dated 2006)
